{
  "source": "paper PMC6566782",
  "about": "“Prodrugs for Skin Delivery of Menahydroquinone-4, an Active Form of Vitamin K2(20), Could Overcome the Photoinstability and Phototoxicity of Vitamin K2(20)” (International Journal of Molecular Sciences, 2019)",
  "key": {"HaCaT cells [1]": {"tested_on": "HaCaT cells", "assay": "Intracellular MKO and MK-4 levels after treatment with MK-4 and MKH derivatives (MKH delivery), LC-MS/MS", "type": "cell-based, Human", "settings": "5 µM compound, intracellular MK-4, mean ± SD (n = 3)", "procedure": "The potential of MKH derivatives and MK-4 as dermal delivery systems of MKH were assessed by measuring intracellular MKH levels. However, accurate measurement of MKH is difficult because MKH is readily oxidized to MK-4. […] Thus, MKO levels in HaCaT cells can reflect the amount of MKH delivered into the cell and subsequently converted in the carboxylation of VKDP. In addition, MK-4 level in cells after MKH prodrugs treatment indicates the oxidative product of MKH. In this study, the intracellular concentration of MKO and MK-4 in HaCaT cells over time after treatment with MK-4, MKH-DMG, or MKH-SUC (5 μM) was determined by LC-MS/MS (Figure 7). HaCaT cells were seeded at 5.0 × 10^4 cells/well in 24-well plates and allowed to attach for 48 h. Cells were cultured in medium containing 5 μM MK-4, MKH-DMG, or MKH-SUC, then medium was removed and cells were washed twice with PBS. Cells were collected in 500 μL of PBS and sonicated. Cell homogenates were combined with an equal volume of methanol and three times volume of n-hexane, vortexed for 2 min, and centrifuged at 1750× g for 10 min. […] The residue was reconstituted with 20 μL of methanol, and subjected to LC-MS/MS, as described below. The protein concentration of the cell homogenate was determined using a BCA protein assay kit (Thermo Fisher Scientific, Waltham, MA, USA). […]"}, "HaCaT cells [2]": {"tested_on": "HaCaT cells", "assay": "Intracellular ROS generation assay (DCFH-DA) with or without UVA irradiation", "type": "cell-based, Human", "settings": "UVA irradiation 15 J/cm^2", "procedure": "The in vitro phototoxicity of MK-4 and MKH derivatives were assessed by measuring the intracellular ROS generation and the viability of human epidermal keratinocyte cells (HaCaT) after UVA irradiation in the presence or absence of MK-4 and MKH derivatives. Intracellular ROS generation was determined using the cell permeable probe 2′,7′-dichlorofluorescein diacetate (DCFH-DA), which rapidly reacts with hydroxyl radicals. Cells without drug treatment or UVA irradiation were used as the control. ROS generation and cell viability are shown in Figure 5 and Figure 6, respectively.\nIntracellular ROS generation was measured using 2′,7′-dichlorofluorescein diacetate (DCFH-DA; Invitrogen, Carlsbad, CA, USA) as a fluorescent probe. HaCaT cells were seeded at 1.0 × 10^5 cells/well in 96-well plates and cultured overnight. Thereafter, cells were washed with PBS and incubated with 10 µM DCFH-DA solution in PBS at 37 °C for 1 h. Following incubation, test compound solutions in PBS described above were added to each well and re-incubated for 1 h. After incubation, cells were irradiated with UVA at an irradiation intensity of 15 J/cm^2 and the fluorescence intensity (Ex: 485 nm, Em: 530 nm) was measured using an Infinite M200 PRO (Tecan Life Sciences)."}, "[3]": {"assay": "Photostability in ethanol under monochromatic light of different wavelengths, LC-MS/MS", "type": "physicochemical", "settings": "1 µM in ethanol, 25 °C", "procedure": "To evaluate the effect of irradiation wavelength on photostability of MK-4 and MKH-ester derivatives, 1 μM solutions of MK-4, MKH-DMG, and MKH-SUC in ethanol were irradiated with a xenon light source monochromatic light at 279, 341, 373, 404, or 435 nm, and the concentration of each compound was measured by LC-MS/MS. The log of concentration of each compound was plotted against irradiation energy (Figure 3), and the rates and half-life energies of degradation were obtained from slopes (Table 2). […] Hydrolytic degradations of MKH-DMG and MKH-SUC to their corresponding monoesters were accelerated only at the short wavelength of 279 nm (Figure 3B,C).\n(§1) Solutions of MK-4 and MKH derivatives in ethanol (1 µM) were irradiated with artificial sunlight (SOLAX 100 W XC-100 B, Seric Ltd., Tokyo, Japan) at 12,000 lx in quartz cells. Illuminance was measured using a digital luminometer (LX-1108, Mother Tool). Irradiation samples (1 µM in ethanol) were irradiated with artificial sunlight at 12,000 lx, and with monochromatic light (279, 341, 373, 404, and 435 nm) using a multi-wavelength irradiation spectrometer (MM 3, Bunkoukeiki Co., Ltd., Tokyo, Japan). Irradiation intensity was measured using an irradiation energy measurement power meter (MM 3, Bunkoukeiki Co., Ltd.).\n(§2) LC-MS/MS was performed using an LCMS-8050 Liquid Chromatograph Mass Spectrometer (Shimadzu, Kyoto, Japan) and Shimadzu HPLC System (system controller (CBM-20A), pump (LD-20AD), degasser (DGU-20As), UV detector (SPD-20A), and auto injector (SIL-20AC HT)). Separations were performed on a CAPCELL PAK C18 UG120 (3 μm, 2.0 mm × 100 mm, Shiseido Co., Ltd., Tokyo, Japan) using a mobile phase of 10 mmol/L ammonium acetate and 0.1% acetic acid in methanol and water (97:3) at a flow rate of 0.4 mL/min. Column temperature was maintained at 40 °C. The mass spectrometer was equipped with an electrospray ionization and was run in positive ion mode. Identification and quantitation were based on MS/MS-multiple reaction monitoring mode using transition ions as follows: m/z 445 → 187 for the [M+H]^+ MK-4 adduct, m/z 445 → 187 for the [M + H]^+ chromenol adduct, 619 → 58 for the [M + H]^+ MKH-DMG adduct, m/z 532 → 58 for the [M + H]^+ MKH-mono-DMG adduct, m/z 664 → 187 for the [M + H]^+ MKH-SUC adduct, m/z 564 → 187 for the [M + H]^+ MKH-mono-SUC adduct, and m/z 461 → 81 for the [M + H]^+ MKO adduct."}, "[4]": {"assay": "Photostability in ethanol under artificial sunlight (12,000 lx), LC-MS/MS", "type": "physicochemical", "settings": "1 µM in ethanol", "procedure": "The relative irradiance of artificial sunlight at wavelengths of 300 to 800 nm is almost equal to that of natural sunlight, according to the manufacturer. […] MKH-SUC concentration decreased according to an apparent first order rate both with and without shading, although the rate of decrease was accelerated without shading. MKH-DMG and MKH-SUC were more photostable than MK-4 by ca. 50- and 3-fold, respectively.\nas §1, §2"}},
  "data": [
    {"smiles": "CC(C)=CCC/C(C)=C/CC/C(C)=C/CC/C(C)=C/CC1=C(C)C(=O)c2ccccc2C1=O", "note": "[MK-4, menaquinone-4, reference compound]", "values": [
      {"measurement": "AUCMK-4 (0–72 h)", "setting": "HaCaT cells [1]", "result": "5.628 ± 0.698 nmol·h/mg of Protein"},
      {"measurement": "intracellular ROS level", "setting": "HaCaT cells [2]", "result": "elevated in a dose-dependent manner"},
      {"measurement": "rate constant (k) of degradation", "setting": "[3]; monochromatic light 279 nm", "result": 0.533, "unit": "J^−1·cm^2"},
      {"measurement": "rate constant (k) of degradation", "setting": "[3]; monochromatic light 341 nm", "result": 0.422, "unit": "J^−1·cm^2"},
      {"measurement": "rate constant (k) of degradation", "setting": "[3]; monochromatic light 373 nm", "result": 0.151, "unit": "J^−1·cm^2"},
      {"measurement": "rate constant (k) of degradation", "setting": "[3]; monochromatic light 435 nm", "result": 0.035, "unit": "J^−1·cm^2"},
      {"measurement": "apparent first order rate constant (k) of degradation", "setting": "[4]; artificial sunlight 12,000 lx, 25 °C", "result": 8.239, "unit": "h⁻¹"},
      {"measurement": "concentration change under shading", "setting": "[4]; shading, 25 °C", "result": "unchanged under shading"},
      {"measurement": "main degradation product", "setting": "[4]; sunlight irradiation (MKH-SUC also under shading)", "result": "MK-4 chromenol"},
      {"measurement": "half-life at 1 µM", "setting": "[4]; ethanol solution in quartz cells, artificial sunlight 12,000 lx, 25 °C, read-out: half-life (t1/2) of degradation (converted)", "result": 5.04, "unit": "min"}
    ]}
  ]
}
